Each structure is given as a SMILES string.

One series deals with SW620/AD300. Put plainly: Cytotoxicity against human SW620/AD300 cells assessed as reduction in cell viability at 20 uM incubated for 72 hrs by CCK-8 assay relative to control. The format is functional.
The nature of series [1]: Reversal fold, ratio of PTX IC50 to PTX IC50 in presence of test compound for reversal of multi-drug resistance in human SW620/AD300 cells incubated for 72 hrs by CCK-8 assay (reference value: 1.0). The class given is functional. (In general: Formazan colour is commonly taken as a measure of viable cells.)
The nature of series [2]: Toxicity in male BALB/c nude mouse xenografted with ABCB1 overexpressing human SW620/AD300 cells assessed as cell necrosis in liver at 50 mg/kg administered every 3 days and measured after 14 days by H and E staining based analysis. The following applies: in vivo, 336 h, time 14 day. The format is organism-based.
Series [3] can be described thus: Toxicity in male BALB/c nude mouse xenografted with ABCB1 overexpressing human SW620/AD300 cells assessed as body weight loss measured after 14 days in presence of paclitaxel. To be noted: 336 h, time 14 day.
The nature of series [4]: Toxicity in male BALB/c nude mouse xenografted with ABCB1 overexpressing human SW620/AD300 cells assessed as cell necrosis in kidney measured after 14 days in presence of paclitaxel by H and E staining based analysis. The format is tissue-based. To be noted: 336 h, time 14 day.
Series [5] is described as follows: Toxicity in male BALB/c nude mouse xenografted with ABCB1 overexpressing human SW620/AD300 cells assessed as cell necrosis in spleen measured after 14 days in presence of paclitaxel by H and E staining based analysis. The following applies: 336 h, time 14 day.
Series [6] deals with T1, ATP-dependent translocase ABCB1 (Homo sapiens, UniProt P08183). The series can be described thus: Binding affinity to ABCB1 (unknown origin) in human SW620/AD300 cells assessed as thermal stabilization at 20 uM at 40 to 65 degreeC incubated for 30 mins by CETSA. The format is cell-based. The following applies: sw620/ad300, 0.5 h.
Series [7] concerns the target T1, ATP-dependent translocase ABCB1. Put plainly: Inhibition of ABCB1 in human SW620/AD300 cells assessed as accumulation of Rhodamine-123 by measuring fluorescence intensity incubated for 24 hrs by flow cytometric analysis. To be noted: sw620/ad300, 24 h, at 5 to 20 µM, dose 5-20 µM. The format is cell-based.
Series [8] can be described thus: Toxicity in male BALB/c nude mouse xenografted with ABCB1 overexpressing human SW620/AD300 cells assessed as cell necrosis in spleen at 50 mg/kg administered every 3 days and measured after 14 days by H and E staining based analysis. The format is organism-based. To be noted: in vivo, 336 h, time 14 day. (In general: In xenograft studies the graft and the host belong to different species.)

Series [9] is described as follows: Toxicity in male BALB/c nude mouse xenografted with ABCB1 overexpressing human SW620/AD300 cells assessed as body weight loss at 50 mg/kg administered every 3 days and measured after 14 days. To be noted: in vivo, 336 h, time 14 day. The format is organism-based.
Series [10] in a line: Toxicity in male BALB/c nude mouse xenografted with ABCB1 overexpressing human SW620/AD300 cells assessed as cell necrosis in liver measured after 14 days in presence of paclitaxel by H and E staining based analysis. The following applies: 336 h, time 14 day.
Series [11] is described as follows: Toxicity in male BALB/c nude mouse xenografted with ABCB1 overexpressing human SW620/AD300 cells assessed as cell necrosis in kidney at 50 mg/kg administered every 3 days and measured after 14 days by H and E staining based analysis. The format is organism-based. To be noted: in vivo, 336 h, time 14 day.

T1 sequence (P08183 whole entry): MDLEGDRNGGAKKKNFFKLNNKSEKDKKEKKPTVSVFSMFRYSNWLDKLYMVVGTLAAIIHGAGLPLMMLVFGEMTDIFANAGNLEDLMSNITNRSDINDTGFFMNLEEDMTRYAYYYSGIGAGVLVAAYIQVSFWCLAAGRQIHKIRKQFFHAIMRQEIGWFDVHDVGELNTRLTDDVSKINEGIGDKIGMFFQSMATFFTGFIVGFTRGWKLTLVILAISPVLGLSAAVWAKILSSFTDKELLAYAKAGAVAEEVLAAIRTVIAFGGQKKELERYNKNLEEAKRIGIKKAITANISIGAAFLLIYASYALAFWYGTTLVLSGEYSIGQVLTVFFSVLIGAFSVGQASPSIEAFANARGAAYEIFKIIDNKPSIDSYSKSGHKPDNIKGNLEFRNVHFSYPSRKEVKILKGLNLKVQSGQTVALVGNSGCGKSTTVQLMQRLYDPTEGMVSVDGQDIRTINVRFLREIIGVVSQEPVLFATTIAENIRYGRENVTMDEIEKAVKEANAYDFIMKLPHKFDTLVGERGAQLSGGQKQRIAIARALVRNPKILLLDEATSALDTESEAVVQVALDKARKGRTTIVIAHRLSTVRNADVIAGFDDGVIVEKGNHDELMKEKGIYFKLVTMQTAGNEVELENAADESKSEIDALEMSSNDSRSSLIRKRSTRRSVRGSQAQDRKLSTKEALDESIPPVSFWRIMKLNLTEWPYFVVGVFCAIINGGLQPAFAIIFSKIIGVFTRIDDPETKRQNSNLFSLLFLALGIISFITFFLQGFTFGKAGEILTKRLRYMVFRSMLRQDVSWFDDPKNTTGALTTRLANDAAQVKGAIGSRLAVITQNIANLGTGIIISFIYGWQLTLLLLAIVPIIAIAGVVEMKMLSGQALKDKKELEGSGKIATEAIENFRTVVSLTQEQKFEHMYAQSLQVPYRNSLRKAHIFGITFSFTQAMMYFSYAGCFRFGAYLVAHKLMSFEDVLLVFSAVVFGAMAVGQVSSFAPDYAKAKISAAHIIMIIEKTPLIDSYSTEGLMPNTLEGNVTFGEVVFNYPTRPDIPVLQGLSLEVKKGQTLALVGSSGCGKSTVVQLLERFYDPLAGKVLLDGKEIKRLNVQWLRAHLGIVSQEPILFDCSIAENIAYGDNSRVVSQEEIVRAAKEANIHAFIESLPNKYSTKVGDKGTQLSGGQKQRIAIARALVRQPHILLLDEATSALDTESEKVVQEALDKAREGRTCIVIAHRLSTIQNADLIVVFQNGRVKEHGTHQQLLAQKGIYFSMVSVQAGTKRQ

As to `Cc1ccc(-c2nccc3c2[nH]c2ccccc23)cc1`, in the series on SW620/AD300, the Activity was less than 80%. On the same count and under the same terms, as for `CCc1ccc(-c2nc(C(=O)OCc3ccccc3)cc3c2[nH]c2ccccc23)cc1`, the figure is more than 80%. `COc1cc(OC)cc(-c2nccc3c2[nH]c2ccccc23)c1`: the Activity in the series with SW620/AD300 is given as less than 80%. As to `CC(C)Cc1nccc2c3ccccc3n(Cc3ccccc3)c12`, the “Ratio IC50” value in [1] turned out to be 113.6. In the series on SW620/AD300, the Activity is listed as more than 80%. `COc1ccc(-c2nccc3c4ccccc4n(Cc4ccccc4)c23)cc1`: in the series on SW620/AD300, the Activity is less than 80%. As for `CCc1ccc(-c2nccc3c4ccccc4n(Cc4ccccc4C)c23)cc1`, in the series on SW620/AD300, the Activity was less than 80%. For the molecule `COc1ccc(-c2nccc3c4ccccc4n(Cc4ccc(C)cc4)c23)cc1`, the “Ratio IC50” value in [1] was determined as 25.6. The Activity with SW620/AD300 was more than 80%. Turning to `CC(C)c1ccc(-c2nccc3c2[nH]c2ccccc23)cc1`, the Activity in the series on SW620/AD300 is less than 80%.

Take `COc1ccc(-c2nccc3c2[nH]c2ccccc23)cc1`: the “Ratio IC50” value in series [1] worked out at 37.8. In addition, the Activity in the series with SW620/AD300 is given as more than 80%. Turning to `Cc1cccc2c1[nH]c1c(CC(C)C)nccc12`, in the series on SW620/AD300, the Activity is reported as less than 80%. As to `CCc1ccc(-c2nccc3c4ccccc4n(Cc4ccc(C)cc4)c23)cc1`, the “Ratio IC50” value in series [1] came out at 26.6. For the same molecule, the Activity in the series on SW620/AD300 was more than 80%. With `COc1ccc(-c2nccc3c2[nH]c2c(C)cccc23)cc1`, in the series with SW620/AD300, the Activity was less than 80%. In the case of `CC(C)Cc1nccc2c3ccccc3n(C)c12`, the Activity in the series on SW620/AD300 is given as less than 80%. For `Oc1ccc(-c2nccc3c2[nH]c2ccccc23)cc1`, the “Ratio IC50” value in series [1] is recorded as 1.6. In addition, the Activity in the series on SW620/AD300 is more than 80%. Take `CCc1ccc(-c2nc(C(=O)OC)cc3c2[nH]c2ccccc23)cc1`: the Activity in the series on SW620/AD300 is listed as more than 80%. Regarding `Cc1nc(-c2ccc(-c3nccc4c3[nH]c3ccccc34)cc2)no1`, the “Ratio IC50” value in [1] is listed as 27.5. In the series on SW620/AD300, the Activity is more than 80%. In the case of `CCc1ccc(-c2nccc3c4ccccc4n(C)c23)cc1`, in the series with SW620/AD300, the Activity is less than 80%. Consider `CCC(CC)c1nccc2c1[nH]c1ccccc12`, for which, in [1], the “Ratio IC50” value was found to be 31. Also, in the series on SW620/AD300, the Activity is more than 80%.

`N#Cc1cccc(-c2nccc3c2[nH]c2ccccc23)c1`: in [1], the “Ratio IC50” value was 2.2. Also, the Activity in the series with SW620/AD300 is recorded as more than 80%.

As to `CCc1ccc(-c2nccc3c4ccccc4n(Cc4ccc(C(C)C)cc4)c23)cc1`, in the series with SW620/AD300, the Activity is on record as less than 80%. Turning to `COc1ccc(-c2nccc3c2[nH]c2ccc(OC)cc23)cc1`, the Activity with SW620/AD300 is on record as less than 80%. As for `FC(F)(F)c1ccc(-c2nccc3c2[nH]c2ccccc23)cc1`, in [1], the “Ratio IC50” value is recorded as 3.2. Moreover, the Activity with SW620/AD300 was more than 80%. As for `CCc1ccc(-c2nccc3c4ccccc4n(CC)c23)cc1`, the Activity in the series with SW620/AD300 is listed as less than 80%. For `CCn1c2ccccc2c2ccnc(CC(C)C)c21`, the Activity with SW620/AD300 is less than 80%.

With `CC(C)Cc1nc(C(=O)OCc2ccccc2)cc2c1[nH]c1ccccc12`, the “Ratio IC50” value in [1] was found to be 4. In the series on SW620/AD300, the Activity is listed as more than 80%. On to `C#CCn1c2ccccc2c2ccnc(CC(C)C)c21`, for which the “Ratio IC50” value in series [1] is reported as 15.9. Further, the Activity with SW620/AD300 is recorded as more than 80%. For `CCn1c2ccccc2c2ccnc(-c3ccc(OC)cc3)c21`, the “Ratio IC50” value in series [1] was determined as 12.3. The Activity in the series on SW620/AD300 is more than 80%. For the molecule `COc1ccc2[nH]c3c(CC(C)C)nccc3c2c1`, in the series with SW620/AD300, the Activity is listed as less than 80%. For `Cc1nc(-c2cccc(-c3nccc4c3[nH]c3ccccc34)c2)no1`, in [1], the “Ratio IC50” value is listed as 3.3. Further, the Activity with SW620/AD300 is reported as more than 80%. On to `CC(C)Cc1nccc2c1[nH]c1ccccc12`, for which, in series [1], the “Ratio IC50” value stood at 3.2. In addition, the Activity in the series on SW620/AD300 is reported as more than 80%.

In the case of `CCC(CC)c1nccc2c3ccccc3n(CC)c12`, in the series on SW620/AD300, the Activity was less than 80%. On to `CCc1nc(C(=O)OC)cc2c1[nH]c1ccccc12`, for which the “Ratio IC50” value in series [1] turned out to be 1.3. Also, the Activity in the series on SW620/AD300 is more than 80%. Take `CCn1c2ccccc2c2ccnc(-c3ccc(C(F)(F)F)cc3)c21`: the “Ratio IC50” value in series [1] amounted to 14.8. Also, the Activity in the series with SW620/AD300 is reported as more than 80%.

In the case of `CCc1ccc(-c2nccc3c2[nH]c2ccccc23)cc1`, in the series with SW620/AD300, the Activity is less than 80%.

As to `Fc1ccc(-c2nccc3c2[nH]c2ccccc23)cc1`, the “Ratio IC50” value in series [1] was 5.3. Besides, the Activity in the series with SW620/AD300 was more than 80%. With `COc1ccc(-c2nccc3c4ccccc4n(Cc4ccccc4C)c23)cc1`, the Activity in the series with SW620/AD300 is given as less than 80%. The same measure, in the same setting: as for `CCC(CC)c1nccc2c3ccccc3n(C)c12`, the figure is less than 80%. Still for that read-out and setting: as for `CCC(CC)c1nccc2c1[nH]c1ccc(OC)cc12`, the figure is less than 80%; as for `CC(C)Cc1nccc2c3ccccc3n(CC(C)C)c12`, less than 80%. Turning to `COc1ccc(-c2nccc3c4ccccc4n(Cc4ccc(C(C)C)cc4)c23)cc1`, the “Ratio IC50” value in series [1] is listed as 26.3. Also, the Activity with SW620/AD300 is more than 80%.

On to `N#Cc1ccc(-c2nccc3c2[nH]c2ccccc23)cc1`, for which, in [1], the “Ratio IC50” value came to 3.5. Also, the Activity in the series with SW620/AD300 is more than 80%.

On to `COc1ccc2c(c1)[nH]c1c(CC(C)C)nccc12`, for which the Activity in the series on SW620/AD300 is reported as less than 80%. For the molecule `Clc1cc(Cl)cc(-c2nccc3c2[nH]c2ccccc23)c1`, the “Ratio IC50” value in series [1] is given as 7.3. Moreover, in the series with SW620/AD300, the Activity was more than 80%. For `CCOC(=O)c1cc2c([nH]c3ccccc32)c(CC(C)C)n1`, in that order: 47.4 and more than 80%. For `Cn1c2ccccc2c2ccnc(-c3ccc(C(F)(F)F)cc3)c21`, in that order: 25.9 and more than 80%. With `COc1ccc(-c2nccc3c4ccccc4n(C)c23)cc1`, the Activity entry is “Non-toxic” in [2]; “Non-toxic” in [3]; “Non-toxic” in series [4]; “Non-toxic” in series [5]; “Active” in [6]; “Non-toxic” in series [8]. Further, the Activity entry in series [9], in series [10] and in series [11] was “Non-toxic” each time. In addition, the “inhibition (INH)” value in [7] was “Dose-dependent-effect”. Regarding `COC(=O)c1cc2c([nH]c3ccccc32)c(CC(C)C)n1`, the “Ratio IC50” value in series [1] is on record as 2.7. The Activity with SW620/AD300 is given as more than 80%. Consider `COc1ccc(-c2nccc3c2[nH]c2cc(OC)ccc23)cc1`, for which the Activity in the series on SW620/AD300 is given as 80%.
